Test results published in article PMC11083148, “Structure–Activity Relationship Studies on Highly Functionalized Pyrazole Hydrazones and Amides as Antiproliferative and Antioxidant Agents” (International Journal of Molecular Sciences, 2024).
Values belong to the compound of their own block, whether it stands above or below them.

Experiments:
[1] = set-up: method as in PMID 32932211; conditions: ABTS scavenging assay; cited from earlier work
[2] = system: washed platelets; test: ROS assay in platelets (DCFH-DA, thrombin-stimulated); format: cell-based, human; conditions: Homo sapiens, Platelet, 0.1 U/mL thrombin, mean ± SD, read-out: IC50 ROS production inhibition
How it was run: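 Washed human platelets (1.0 × 10^8/mL) in pH 7.4 HEPES buffer were pre-incubated 15 min at 37 °C with compound, then stimulated with 0.1 U/mL thrombin. ROS was read as DCF fluorescence from DCFH-DA by flow cytometry. IC50 comes from three-point concentration-response nonlinear regression versus saline control, mean of six experiments.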

[3] = system: GM-6114; test: MTT assay, cytotoxicity on normal fibroblasts; format: cell-based; conditions: human, 48 h, 10 µM
[4] = system: SKMEL28; test: MTT assay, antiproliferative activity; format: cell-based; conditions: Homo sapiens, SK-MEL-28, 10 µM, 48h
[5] = system: SKOV3; test: MTT assay, antiproliferative activity; format: cell-based; conditions: Homo sapiens, SK-OV-3, 10 µM, 48h
[6] = system: MCF7; test: MTT assay, antiproliferative activity; format: cell-based; conditions: Homo sapiens, 10 µM, 48h
[7] = system: HeLa; test: MTT assay, antiproliferative activity; format: cell-based; conditions: Homo sapiens, 10 µM, 48h, read-out: Mean Growth Percentage
[8] = system: washed platelets; test: Platelet aggregation (thrombin-induced, Born's method); format: cell-based; conditions: Homo sapiens, 0.1 U/mL thrombin, mean ± SD, read-out: IC50 Aggregation inhibition
How it was run: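 Washed human platelets (3.0 × 10^8/mL) were preincubated with compound at 37 °C for 3 min. Aggregation was then triggered with 0.1 U/mL thrombin and measured by Born's turbidimetric method, with IC50 values calculated from the response.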

[9] = DPPH radical-scavenging activity; format: physicochemical; set-up: AA (%), percentage of antioxidant activity: concentration or dose not given beside the values; conditions: mean ± SD, n = 2
Method: The antioxidant activity of the representative compounds of the two series (namely, acylhydrazones 10b, 11a, 11d, 12d, 13d, and amides 14, 22) was measured in vitro using the 2,2-diphenyl-1-picrylhydrazyl (DPPH) assay. The results were calculated as Trolox equivalent and expressed as a percentage of antioxidant activity (AA) (Table 3). […] Derivatives 10b and 12d were endowed with the highest antioxidant activity, thus highlighting the relevance of both pyrazole N1 and acylhydrazone substituents on compounds’ radical scavenging properties.
Compounds 10b, 11a, 11d, 12d, 13d, 14, and 22 (ca. 3 mg) were dissolved in DMSO (1 mL), and then 100 µL of this solution was mixed with 3.9 mL of DPPH methanol solution (65 µM). Absorbance was measured at 517 nm after reacting for 30 min in the dark. The linear calibration curve was obtained using Trolox standards (ranging between 20 and 200 mg/L, R^2 = 0.9955). The result was calculated as Trolox equivalent in mg/L, and the percentage of antioxidant activity (AA%) was calculated from the ratio of decreasing absorbance of sample solution (A0 − As) to absorbance of blank DPPH solution (A0), as expressed in Equation (1). (1) AA%=A0−As/A0×100
All analyses were carried out in duplicate (n = 2), and values are given as means ± standard deviation (SD).

[10] = system: A549; test: MTT assay, antiproliferative activity; format: cell-based; conditions: Homo sapiens, 48h, read-out: Mean Growth Percentage
How it was run: (§1)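 Cells plated 16 h, then exposed to compounds at 10 μM final for 48 h at 37 °C, 5% CO2. MTT added for 4 h, formazan dissolved in DMSO, absorbance read at 570 nm; values as percent of DMSO-only control, mean of three experiments in six replicates.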

[11] = system: Hep-G2; test: MTT assay, antiproliferative activity; format: cell-based; conditions: Homo sapiens, HepG2, 48h
How it was run: as §1

[12] = system: MDA-MB231; test: MTT assay, antiproliferative activity; format: cell-based; conditions: Homo sapiens, MDA-MB-231, 48h
How it was run: as §1

[13] = system: SK-BR3; test: MTT assay, antiproliferative activity; format: cell-based; conditions: Homo sapiens, SK-BR-3, 48h
How it was run: as §1

SMILES: Nc1c(C(F)(F)F)n[nH]c1-c1ccccc1 [IIa]
IC50 [1]: 14.1 µM
Trolox equivalent antioxidant capacity (TEAC) [1]: 1.35

SMILES: Nc1c(C(F)(F)F)n[nH]c1-c1cccs1 [IIb]
IC50 [1]: 17.6 µM
Trolox equivalent antioxidant capacity (TEAC) [1]: 1.10

IC50 [2]: 387 ± 35 µM
melting point: 164 to 166 °C
IC50 [8]: 365 ± 28 µM
SMILES: COC(=O)c1c(NC(=O)c2cc(OC)c(OC)c(OC)c2)n[nH]c1Nc1ccccc1 [compound 14, Methyl 5-(phenylamino)-3-(3,4,5-trimethoxybenzamido)-1H-pyrazole-4-carboxylate]
Mean Growth Percentage [3]: 39.31%
Mean growth percentage at 10 µM [4]: 41.5%
Mean growth percentage at 10 µM [5]: 38.5%
mean growth percentage (cell growth remaining vs control) at 10 µM [6]: 66.1%
activity at 10 µM [7]: 9.45%
AA (%), percentage of antioxidant activity [9]: 3.62 ± 0.08%
DPPH (%) [9]: 96.38 ± 0.08%
activity at 10 µM [10]: 35.1%
Mean growth percentage at 10 µM [11]: 67.2%
Mean growth percentage at 10 µM [12]: 57%
Mean growth percentage at 10 µM [13]: 53.8%

IC50 [2]: 313 ± 25 µM
melting point: 135 to 138 °C
IC50 [8]: 249 ± 22 µM
SMILES: CCOC(=O)c1c(NC(=O)c2cc(OC)c(OC)c(OC)c2)nn(C)c1Nc1ccccc1 [compound 22, Ethyl 1-methyl-5-(phenylamino)-3-(3,4,5-trimethoxybenzamido)-1H-pyrazole-4-carboxylate]
Mean Growth Percentage [3]: 57.94%
Mean growth percentage at 10 µM [4]: 84.1%
Mean growth percentage at 10 µM [5]: 94.2%
mean growth percentage (cell growth remaining vs control) at 10 µM [6]: 115%
activity at 10 µM [7]: 109%
AA (%), percentage of antioxidant activity [9]: 2.39 ± 0.24%
DPPH (%) [9]: 97.61 ± 0.24%
activity at 10 µM [10]: 106%
Mean growth percentage at 10 µM [11]: 102%
Mean growth percentage at 10 µM [12]: 140%
Mean growth percentage at 10 µM [13]: 103%
